Measured values as given in the supplement of paper PMC12463676, “Small-molecule dissolution of stress granules by redox modulation benefits ALS models” (Nature Chemical Biology, 2025).

How the values were obtained:
lipoamide = compound: NC(=O)CCCCC1CCSS1 [lipoamide]; experiment: thermal stability z-score vs DMSO; higher = more thermally stabilized by treatment; details: HeLa, lipoamide concentration 100 µM
Protocol: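 Cellular thermal proteome profiling in HeLa cells. Cells were treated with 100 µM lipoamide for 1 h, with or without 1 mM arsenate for a further 1 h, then heated to ten temperatures (37-66.3 °C), and soluble protein was quantified by TMT mass spectrometry relative to 0.1% DMSO controls. The thermal stability score (sum of log2 fold changes minus the abundance score) was transformed to a z-score; mean of n = 3 experiments.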

potassium arsenate = compound: O=[As]([O-])(O)O.[K+] [potassium arsenate]; experiment: as above; details: HeLa; arsenate concentration 1 mM
Protocol: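 Cellular thermal proteome profiling in HeLa cells treated with 1 mM arsenate for 1 h (DMSO pretreatment), heated to ten temperatures (37-66.3 °C). Soluble protein was quantified by TMT mass spectrometry relative to DMSO controls; the thermal stability score was transformed to a z-score; mean of n = 3 experiments.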

[1] = arsenate co-treatment: 1 mM arsenate 1 h
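Also: each temperature applied for 3 min, abundance score taken as mean log2 fold change at the two lowest temperatures, z-score obtained by mean subtraction and division by SD.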

Sequence of UniProt Q9HAN9 (Q9HAN9 whole entry): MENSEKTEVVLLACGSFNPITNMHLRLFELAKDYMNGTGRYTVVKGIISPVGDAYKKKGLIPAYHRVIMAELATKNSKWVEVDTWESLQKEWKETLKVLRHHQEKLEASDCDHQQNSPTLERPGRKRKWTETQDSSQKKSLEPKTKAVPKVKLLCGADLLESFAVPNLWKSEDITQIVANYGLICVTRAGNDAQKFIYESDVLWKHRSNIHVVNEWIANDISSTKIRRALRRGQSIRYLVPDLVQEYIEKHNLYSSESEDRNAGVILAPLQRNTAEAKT
Sequence of UniProt Q14978 (Q14978 whole entry): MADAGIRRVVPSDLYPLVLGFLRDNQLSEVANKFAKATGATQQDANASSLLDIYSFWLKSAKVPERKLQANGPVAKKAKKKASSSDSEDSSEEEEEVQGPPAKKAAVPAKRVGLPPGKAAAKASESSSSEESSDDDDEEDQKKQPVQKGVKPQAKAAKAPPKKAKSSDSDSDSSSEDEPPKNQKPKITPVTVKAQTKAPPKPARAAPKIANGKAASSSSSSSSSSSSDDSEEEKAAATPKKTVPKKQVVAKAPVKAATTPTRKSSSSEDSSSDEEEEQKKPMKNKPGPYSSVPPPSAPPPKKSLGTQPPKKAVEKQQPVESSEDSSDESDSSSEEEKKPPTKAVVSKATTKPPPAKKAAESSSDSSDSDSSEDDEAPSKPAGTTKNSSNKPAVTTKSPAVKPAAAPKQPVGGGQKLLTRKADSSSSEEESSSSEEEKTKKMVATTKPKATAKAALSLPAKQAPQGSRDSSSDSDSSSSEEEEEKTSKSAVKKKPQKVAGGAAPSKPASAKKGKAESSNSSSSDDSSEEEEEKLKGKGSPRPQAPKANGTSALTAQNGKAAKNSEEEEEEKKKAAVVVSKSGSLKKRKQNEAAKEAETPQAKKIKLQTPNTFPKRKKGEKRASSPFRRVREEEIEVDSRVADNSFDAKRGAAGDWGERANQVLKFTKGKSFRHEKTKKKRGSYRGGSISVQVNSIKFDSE
Sequence of UniProt Q13232 (Q13232 whole entry): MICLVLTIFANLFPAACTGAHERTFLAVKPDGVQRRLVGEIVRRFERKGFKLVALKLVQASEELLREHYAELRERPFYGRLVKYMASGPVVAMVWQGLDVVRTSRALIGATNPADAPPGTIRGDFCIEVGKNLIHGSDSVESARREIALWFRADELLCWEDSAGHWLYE
Sequence of UniProt Q9ULX3 (Q9ULX3 whole entry): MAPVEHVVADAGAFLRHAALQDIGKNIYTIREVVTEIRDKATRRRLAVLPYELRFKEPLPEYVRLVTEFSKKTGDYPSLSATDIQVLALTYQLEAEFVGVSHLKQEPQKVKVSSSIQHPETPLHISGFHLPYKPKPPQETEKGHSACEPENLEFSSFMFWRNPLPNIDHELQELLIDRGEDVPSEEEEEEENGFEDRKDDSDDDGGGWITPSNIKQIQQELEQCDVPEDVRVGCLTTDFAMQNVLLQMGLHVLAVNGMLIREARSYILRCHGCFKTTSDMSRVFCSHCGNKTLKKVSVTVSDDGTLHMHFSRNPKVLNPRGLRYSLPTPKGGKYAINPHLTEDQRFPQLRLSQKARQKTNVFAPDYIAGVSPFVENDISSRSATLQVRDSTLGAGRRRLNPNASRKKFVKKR
Sequence of UniProt Q13287 (Q13287 whole entry): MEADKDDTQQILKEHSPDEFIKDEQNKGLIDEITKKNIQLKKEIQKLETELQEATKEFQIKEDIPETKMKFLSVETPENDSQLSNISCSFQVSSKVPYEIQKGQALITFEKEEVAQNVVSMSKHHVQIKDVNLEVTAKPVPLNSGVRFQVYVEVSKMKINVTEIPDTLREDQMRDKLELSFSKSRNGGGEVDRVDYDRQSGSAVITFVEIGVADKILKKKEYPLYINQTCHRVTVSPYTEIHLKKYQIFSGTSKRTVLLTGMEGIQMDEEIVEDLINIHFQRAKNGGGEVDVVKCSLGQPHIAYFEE
Sequence of UniProt Q9UK39 (Q9UK39 whole entry): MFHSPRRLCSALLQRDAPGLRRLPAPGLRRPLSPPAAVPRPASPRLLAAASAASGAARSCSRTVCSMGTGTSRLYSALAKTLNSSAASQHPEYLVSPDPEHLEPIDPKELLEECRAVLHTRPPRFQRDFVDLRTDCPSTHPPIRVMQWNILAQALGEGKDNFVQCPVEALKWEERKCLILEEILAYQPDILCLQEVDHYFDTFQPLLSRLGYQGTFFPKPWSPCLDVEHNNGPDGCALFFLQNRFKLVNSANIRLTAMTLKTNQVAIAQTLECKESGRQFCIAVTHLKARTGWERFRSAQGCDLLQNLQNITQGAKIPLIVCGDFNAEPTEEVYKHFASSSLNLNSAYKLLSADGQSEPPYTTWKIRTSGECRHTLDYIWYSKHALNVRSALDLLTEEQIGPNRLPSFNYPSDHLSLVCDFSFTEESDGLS
Sequence of UniProt Q9HBL8 (Q9HBL8 whole entry): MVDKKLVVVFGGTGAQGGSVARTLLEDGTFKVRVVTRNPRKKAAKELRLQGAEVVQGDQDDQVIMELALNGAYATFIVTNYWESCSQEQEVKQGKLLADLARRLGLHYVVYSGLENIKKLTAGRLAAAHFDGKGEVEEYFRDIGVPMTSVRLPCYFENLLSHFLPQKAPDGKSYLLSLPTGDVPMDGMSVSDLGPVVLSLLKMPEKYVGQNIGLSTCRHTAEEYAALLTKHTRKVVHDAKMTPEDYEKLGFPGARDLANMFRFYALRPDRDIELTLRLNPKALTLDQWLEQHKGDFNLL
Sequence of UniProt O15226 (O15226 whole entry): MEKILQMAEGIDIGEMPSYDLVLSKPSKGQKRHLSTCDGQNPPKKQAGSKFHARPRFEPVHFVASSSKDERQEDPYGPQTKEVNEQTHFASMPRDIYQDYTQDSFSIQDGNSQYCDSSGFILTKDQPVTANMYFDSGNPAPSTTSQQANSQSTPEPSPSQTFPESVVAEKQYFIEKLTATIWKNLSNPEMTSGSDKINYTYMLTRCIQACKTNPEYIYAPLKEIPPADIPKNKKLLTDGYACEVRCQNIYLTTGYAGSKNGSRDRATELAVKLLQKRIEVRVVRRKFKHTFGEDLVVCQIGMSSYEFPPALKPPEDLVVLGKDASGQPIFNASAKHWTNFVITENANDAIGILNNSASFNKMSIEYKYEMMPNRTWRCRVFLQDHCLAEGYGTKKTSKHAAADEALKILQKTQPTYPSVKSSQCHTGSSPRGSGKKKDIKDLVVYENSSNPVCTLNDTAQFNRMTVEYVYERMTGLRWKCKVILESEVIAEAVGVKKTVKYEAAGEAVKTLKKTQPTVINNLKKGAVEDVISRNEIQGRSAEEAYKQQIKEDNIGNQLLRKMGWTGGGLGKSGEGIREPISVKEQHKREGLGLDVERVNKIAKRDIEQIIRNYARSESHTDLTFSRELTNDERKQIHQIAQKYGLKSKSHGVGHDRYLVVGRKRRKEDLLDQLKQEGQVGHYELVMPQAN
Sequence of UniProt Q9BVI4 (Q9BVI4 whole entry): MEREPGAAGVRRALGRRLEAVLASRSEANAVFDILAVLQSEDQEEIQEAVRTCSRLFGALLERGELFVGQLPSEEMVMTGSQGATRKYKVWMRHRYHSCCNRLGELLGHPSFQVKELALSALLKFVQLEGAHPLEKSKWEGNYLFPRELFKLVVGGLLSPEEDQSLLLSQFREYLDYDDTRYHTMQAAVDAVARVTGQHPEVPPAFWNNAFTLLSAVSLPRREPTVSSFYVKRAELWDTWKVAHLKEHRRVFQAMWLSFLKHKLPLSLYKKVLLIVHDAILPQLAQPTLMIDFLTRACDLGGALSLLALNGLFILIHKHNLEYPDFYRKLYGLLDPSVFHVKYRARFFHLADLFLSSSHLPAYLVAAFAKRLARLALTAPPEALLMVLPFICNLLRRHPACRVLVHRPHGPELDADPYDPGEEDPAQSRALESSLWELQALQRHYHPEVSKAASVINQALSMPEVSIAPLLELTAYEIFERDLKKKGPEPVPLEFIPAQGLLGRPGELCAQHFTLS
Sequence of UniProt P30419 (P30419 whole entry): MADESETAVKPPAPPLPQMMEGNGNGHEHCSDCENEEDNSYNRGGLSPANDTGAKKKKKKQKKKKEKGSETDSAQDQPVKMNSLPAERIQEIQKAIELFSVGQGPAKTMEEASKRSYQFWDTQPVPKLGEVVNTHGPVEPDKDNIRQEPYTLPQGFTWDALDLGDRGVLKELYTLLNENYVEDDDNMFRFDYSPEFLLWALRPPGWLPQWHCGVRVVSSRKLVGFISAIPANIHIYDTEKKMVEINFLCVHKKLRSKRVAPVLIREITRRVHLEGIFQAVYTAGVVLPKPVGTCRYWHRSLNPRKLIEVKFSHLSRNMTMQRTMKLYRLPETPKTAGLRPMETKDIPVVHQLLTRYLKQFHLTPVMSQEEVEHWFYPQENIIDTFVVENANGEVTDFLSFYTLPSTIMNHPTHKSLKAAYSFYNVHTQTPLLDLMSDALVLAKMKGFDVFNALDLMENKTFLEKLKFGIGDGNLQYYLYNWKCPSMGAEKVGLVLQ
Sequence of UniProt Q9UMY1 (Q9UMY1 whole entry): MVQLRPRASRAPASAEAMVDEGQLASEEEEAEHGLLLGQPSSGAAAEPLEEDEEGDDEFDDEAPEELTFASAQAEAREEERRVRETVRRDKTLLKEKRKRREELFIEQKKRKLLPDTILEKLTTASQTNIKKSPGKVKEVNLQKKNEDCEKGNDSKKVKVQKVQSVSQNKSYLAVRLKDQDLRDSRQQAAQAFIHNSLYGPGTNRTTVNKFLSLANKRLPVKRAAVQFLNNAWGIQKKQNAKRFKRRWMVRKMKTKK
Sequence of UniProt O60936 (O60936 whole entry): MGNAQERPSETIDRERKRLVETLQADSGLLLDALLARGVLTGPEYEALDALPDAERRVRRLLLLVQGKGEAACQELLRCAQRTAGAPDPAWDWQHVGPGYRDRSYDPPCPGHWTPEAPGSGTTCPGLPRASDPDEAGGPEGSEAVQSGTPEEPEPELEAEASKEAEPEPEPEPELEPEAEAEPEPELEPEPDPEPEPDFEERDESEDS
Sequence of UniProt Q9NPE3 (Q9NPE3 whole entry): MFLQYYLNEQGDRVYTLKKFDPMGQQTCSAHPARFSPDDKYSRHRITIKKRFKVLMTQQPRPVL

Target	thermal stability z-score (lipoamide; [1])	thermal stability z-score (lipoamide; arsenate co-treatment: none)	thermal stability z-score (potassium arsenate)
NKRF (UniProt O15226)	-0.0267	0.00359	-0.311
NLE1 (UniProt Q9NVX2)	0.481	0.2	-2.71
NLN (UniProt Q9BYT8)	-0.0488	0.000162	-0.079
NLRX1 (UniProt Q86UT6)	0.128	0.211	-0.0617
NMD3 (UniProt Q96D46)	0.204	0.115	-0.0507
NME1|NME2	0.455	0.432	0.487
NME3 (UniProt Q13232)	0.0656	0.615	0.673
NME4 (UniProt O00746)	-1.03	-1.25	-1.86
NME6 (UniProt O75414)	0.102	0.493	0.083
NME7 (UniProt Q9Y5B8)	0.000387	0.0484	-0.13
NMI (UniProt Q13287)	1.24	0.324	2.1
NMNAT1 (UniProt Q9HAN9)	1.03	1.15	1.87
NMRAL1 (UniProt Q9HBL8)	1.43	1.45	1.37
NMT1 (UniProt P30419)	0.237	-0.0177	1.15
NNMT (UniProt P40261)	1.79	1.62	0.0978
NNT (UniProt Q13423)	0.176	0.166	0.0461
NO66 (UniProt Q9H6W3)	0.635	0.483	0.842
NOA1 (UniProt Q8NC60)	0.222	0.0658	-0.0924

Target	thermal stability z-score (lipoamide; [1])	thermal stability z-score (lipoamide; arsenate co-treatment: none)	thermal stability z-score (potassium arsenate)
NOB1 (UniProt Q9ULX3)	-0.423	-0.679	-0.873
NOC2L (UniProt Q9Y3T9)	0.154	0.208	0.0133
NOC4L (UniProt Q9BVI4)	0.134	0.00403	0.214
NOCT (UniProt Q9UK39)	-0.088	-0.117	0.112
NOL3 (UniProt O60936)	0.615	0.549	0.236
NOL6 (UniProt Q9H6R4)	0.328	-0.0357	-0.592
NOL7 (UniProt Q9UMY1)	0.225	-0.325	-0.698
NOL11 (UniProt Q9H8H0)	0.118	0.00868	-0.0716
NOL12|V9GYY5 (UniProt V9GYY5)	0.0645	-1.5	0.699
NOLC1 (UniProt Q14978)	0.36	0.113	-0.695
NOMO1 (UniProt Q15155)	-0.893	-1.83	0.353
NOMO2 (UniProt Q5JPE7)	-3.91	-3.99	0.407
NONO (UniProt Q15233)	1.05	0.927	-0.137
NOP2 (UniProt P46087)	0.976	-0.163	-0.016
NOP9 (UniProt Q86U38)	0.182	0.121	-0.372
NOP10 (UniProt Q9NPE3)	0.405	-0.0767	0.522
NOP14 (UniProt P78316)	-0.68	-0.438	-0.581
NOP16 (UniProt Q9Y3C1)	-0.153	-0.677	-1.68
